Legend:
Assay type in all cases: biochemical
Conditions in all cases: Table 8
[1] = molecular target: T1, Porcine Ventricle myofibrils (left ventricle of Yucatan minipigs) (Sus scrofa, UniProt P79293); test: Myofibril ATPase assay (PK/LDH NADH-coupled), ventricle myofibrils
T1 construct: Myofibrils from porcine cardiac muscle was isolated from the left ventricle of Yucatan minipigs; tissue Exemplar Genetics; host or cells: left ventricle of Yucatan minipigs
Experimental: (§1) Myofibril ATPase assays are known in the art to be useful in evaluating small molecules for the treatment of HCM and other cardiac indications. Myosin ATPase activity is assessed by using a coupled reaction system, in which ADP generated by the myosin ATPase function is coupled to the disappearance of NADH through the pyruvate kinase/lactate dehydrogenase (PK-LDH) system. ATPase activity produces ADP, which is used as a substrate for PK to produce pyruvate and regenerate ATP. The pyruvate is then used as a substrate by LDH to oxidize NADH to NAD+. The rate of the reaction is monitored through the time-dependent disappearance of NADH using absorbance at 340 nm, which, when the couple system is in stoichiometric excess, is directly correlated to the ATPase activity of the myosin. Inhibition of ATPase activity by the assayed compounds is indicated by a reduced rate of NADH loss, relative to vehicle-treated controls, over the experimental time window. Rabbit Skeletal and Porcine Ventricle are the primary sources of myofibril material.
(§2) Materials: The following stock solutions and reagents were used in the Myofibril ATPase Assay:
(§3) Stock Solutions of pCa buffer. Combine PIPES, CaCl2), and EGTA solutions with water. Adjust pH to 7.0 and bring final volume to 100 mL.
(§4) Buffer A & Buffer B. Prepare buffers A and B according to the table below.
(§5) Myofibril ATPase Assay Procedure: BSA, ATP, NADH, PEP, and DTT solutions were thawed at room temperature, then transferred to ice. Pellet-frozen myofibrils were transferred with approximately twice the required volume into a sufficiently large tube and capped. Myofibrils were thawed by rolling in a water bath for approximately 15 min at room temperature and cooled on ice. Buffers A and B were prepared by adjusting volumes as necessary for required number of wells and stored on ice. 0.5 μL of the compounds to be assayed were added into wells. 25 μL of Buffer A was dispensed into the wells, followed by 25 μL of Buffer B. The wells were measured for absorbance at 340 nm, using a kinetic protocol in which the wells are read every 1.5-2 min for 75 min. Assay data analysis was performed using a python script that filtered the raw data to retain those points falling between a starting and ending time and between a maximum and minimum absorbance, then used the filtered time-domain 340 nm absorbance data in each well to calculate a slope via linear regression analysis in units of mAU/min. Compound slopes were normalized between 100% and 0% activity, where 100% represented the slope of wells containing only compound vehicle, and fit to a 4-parameter logistic model. In addition to the fit parameters, the EC25% is calculated, relative to the 100% normalized value. In the case of inhibitors, EC50% is also calculated, if available. Fit parameters, calculated effective concentrations, filtered raw data, and calculated slopes were exported, in addition to compound-specific graphs of normalized ATPase activity versus concentration in μM.
Cardiac Myofibril Isolation:
Myofibrils from porcine cardiac muscle was isolated from the left ventricle of Yucatan minipigs. Myofibrils were prepared using a method based upon those described in Herrmann et al. (1993) and summarized here. Minced tissue was homogenized for 50 sec with a Polytron homogenizer into 10 volumes (relative to weight in grams) of Isolation Buffer A (75 mM KCl, 10 mM Imidazole, 2 mM MgCl2, 2 mM EGTA, 1 mM NaN3, 1% v/v Triton X-100) supplemented with 4 mM Phosphocreatine, 1 mM ATP, 50 mM BDM, 1 mM DTT, 1 mM Benzamide HCl, 0.1 mM PMSF, 10 μM leupeptin, 5 μM pepstatin, and 10 mM EDTA. The myofibrils were recovered by centrifugation (Beckman Allegra 6R, 1200 g, 15 min) and resuspended in 10 volumes Isolation Buffer B (Buffer A above without supplemental reagents). The myofibrils were further homogenized described above and recovered by centrifugation for 7 mins. Cellular membranes and debris were removed by 3 washes in Isolation Buffer B, centrifuging each as before. […]

[2] = test system: Rabbit Skeletal myofibrils (rabbit psoas muscle); test: Myofibril ATPase assay (PK/LDH NADH-coupled), skeletal myofibrils
Experimental: as §1, §2, §3, §4, §5
Skeletal Myofibril Isolation:
Myofibrils from various animals and tissue types were acquired from a variety of sources: rabbit psoas muscle was purchased from Pel-Freez Biologicals (Rogers, AR) and porcine cardiac muscle was purchased from Exemplar Genetics. All myofibrils were prepared using a method based upon those described in Herrmann et al. (1993) and summarized here. Minced tissue was homogenized for 50 sec with a Polytron homogenizer into 10 volumes (relative to weight in grams) of Isolation Buffer A (50 mM Tris, pH 8.0, 0.1 M potassium acetate, 5 mM KCl, 2 mM DTT, 5 mM EDTA, 0.5% v/v Triton X-100) supplemented with 0.1 mM PMSF, 10 μM leupeptin, 5 μM pepstatin, and 0.5 mM sodium azide. The myofibrils were recovered by centrifugation (Beckman Allegra 6R, 1200 g, 10 min) and resuspended in 10 volumes Isolation Buffer B (Buffer A above without protease inhibitors or sodium azide). The myofibrils were further homogenized as before and recovered by centrifugation. […]

Porcine Atria myofibrils = test: Myofibril ATPase assay (PK/LDH NADH-coupled), atria myofibrils
Experimental: as §5

T1 sequence (P79293 whole entry): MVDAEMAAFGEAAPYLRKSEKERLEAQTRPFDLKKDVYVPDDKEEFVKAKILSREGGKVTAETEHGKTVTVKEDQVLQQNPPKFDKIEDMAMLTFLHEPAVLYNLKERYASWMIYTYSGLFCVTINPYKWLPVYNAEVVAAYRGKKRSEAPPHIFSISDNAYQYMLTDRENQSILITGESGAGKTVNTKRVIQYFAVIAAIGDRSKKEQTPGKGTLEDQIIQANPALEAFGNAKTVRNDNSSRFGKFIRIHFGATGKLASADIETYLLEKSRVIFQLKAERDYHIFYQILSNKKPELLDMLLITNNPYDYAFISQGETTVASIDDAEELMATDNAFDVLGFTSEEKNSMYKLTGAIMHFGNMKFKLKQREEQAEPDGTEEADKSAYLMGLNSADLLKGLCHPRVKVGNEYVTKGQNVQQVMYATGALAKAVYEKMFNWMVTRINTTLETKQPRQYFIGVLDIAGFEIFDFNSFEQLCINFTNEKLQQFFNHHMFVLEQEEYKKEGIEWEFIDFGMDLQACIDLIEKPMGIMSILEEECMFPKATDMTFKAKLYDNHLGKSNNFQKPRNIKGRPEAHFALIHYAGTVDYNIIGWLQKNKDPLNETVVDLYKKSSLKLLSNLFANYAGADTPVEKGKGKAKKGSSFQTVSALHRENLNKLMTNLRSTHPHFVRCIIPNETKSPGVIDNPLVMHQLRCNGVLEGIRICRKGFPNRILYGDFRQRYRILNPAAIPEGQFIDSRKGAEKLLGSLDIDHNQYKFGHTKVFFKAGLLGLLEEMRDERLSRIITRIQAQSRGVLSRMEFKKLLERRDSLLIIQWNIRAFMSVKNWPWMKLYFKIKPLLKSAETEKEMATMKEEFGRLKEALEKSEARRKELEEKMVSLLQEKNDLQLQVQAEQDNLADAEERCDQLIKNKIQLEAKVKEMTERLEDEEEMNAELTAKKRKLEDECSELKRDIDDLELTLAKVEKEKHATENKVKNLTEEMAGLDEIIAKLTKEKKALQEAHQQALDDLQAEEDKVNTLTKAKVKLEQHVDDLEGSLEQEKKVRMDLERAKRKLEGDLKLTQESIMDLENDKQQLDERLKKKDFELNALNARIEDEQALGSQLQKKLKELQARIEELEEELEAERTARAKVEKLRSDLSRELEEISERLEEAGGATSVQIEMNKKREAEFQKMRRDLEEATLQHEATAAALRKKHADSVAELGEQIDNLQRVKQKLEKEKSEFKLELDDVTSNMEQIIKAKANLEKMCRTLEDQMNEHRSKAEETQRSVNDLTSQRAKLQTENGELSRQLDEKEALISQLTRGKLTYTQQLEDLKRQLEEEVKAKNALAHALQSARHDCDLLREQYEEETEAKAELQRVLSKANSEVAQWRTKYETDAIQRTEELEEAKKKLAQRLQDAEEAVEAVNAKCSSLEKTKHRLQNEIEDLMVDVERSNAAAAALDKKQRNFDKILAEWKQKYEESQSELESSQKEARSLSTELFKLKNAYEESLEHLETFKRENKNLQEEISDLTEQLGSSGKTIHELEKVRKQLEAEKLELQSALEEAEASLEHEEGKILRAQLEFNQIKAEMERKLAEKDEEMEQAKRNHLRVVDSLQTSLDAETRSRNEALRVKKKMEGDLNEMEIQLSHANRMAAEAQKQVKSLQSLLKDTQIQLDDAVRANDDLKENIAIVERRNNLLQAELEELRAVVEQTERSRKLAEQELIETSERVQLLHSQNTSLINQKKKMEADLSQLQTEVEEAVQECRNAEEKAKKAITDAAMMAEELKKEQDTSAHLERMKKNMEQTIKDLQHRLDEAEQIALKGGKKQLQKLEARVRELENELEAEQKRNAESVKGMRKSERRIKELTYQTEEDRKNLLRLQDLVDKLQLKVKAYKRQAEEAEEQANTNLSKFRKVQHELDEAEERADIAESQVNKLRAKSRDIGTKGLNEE

SMILES | Porcine Ventricle IC25 [1] [nM] | Rabbit Psoas IC25 [2] [nM] | Porcine Atria IC25 (Porcine Atria myofibrils) [nM]
C[C@H](NC(=O)CN1C(=O)Nc2ccc(F)c(F)c2[C@@H]1C)c1ccc(F)cc1F (relative stereo) [Compound B231, 2-[(4S*)-5,6-Difluoro-4-methyl-2-oxo-1,4-dihydroquinazolin-3-yl]-N-[(1S)-1-(2,4-difluorophenyl)ethyl]acetamide] | 1558 | 21.07 | 210
C[C@H](NC(=O)CN1C(=O)Nc2ccc(F)c(F)c2[C@H]1C)c1ccc(F)cc1F (relative stereo) [Compound B232, 2-[(4R*)-5,6-Difluoro-4-methyl-2-oxo-1,4-dihydroquinazolin-3-yl]-N-[(1S)-1-(2,4-difluorophenyl)ethyl]acetamide] | 396.3 | 32.8 | 40
Cc1cc(C#N)nnc1C(C)NC(=O)CN1Cc2c(ccc(F)c2F)NC1=O (single isomer, unassigned) [Compound B23] | 34.7 | 12.4 | 40
Cc1ccnnc1C(C)NC(=O)CN1Cc2c(ccc(F)c2F)NC1=O (single isomer, unassigned) [Compound B25] | 2494 | 4823 | 700
Cc1cc([C@H](C)NC(=O)CN2Cc3c(ccc(F)c3F)NC2=O)ncc1C#N (single isomer, unassigned) [Compound B35] | 948 | 1252 | 580
Cc1cnncc1C(C)NC(=O)CN1Cc2c(ccc(F)c2F)NC1=O (single isomer, unassigned) [Compound B47] | 96660 | 100000 | 100000
CC(NC(=O)CN1Cc2c(ccc(F)c2F)NC1=O)c1cc(C#N)c(F)cn1 (single isomer, unassigned) [Compound B53] | 7534 | 100000 | 90
CC(C)C[C@H](C(=O)N[C@H](C)c1ccc(F)cc1F)N1Cc2cc(F)ccc2NC1=O (single isomer, unassigned) [Compound B67] | 9364 | 7017 | 43940
Cc1cc(C(C)NC(=O)CN2Cc3c(ccc(F)c3F)NC2=O)ncc1F (single isomer, unassigned) [Compound B69] | 298.7 | 3174 | 610
CC(NC(=O)CN1Cc2c(ccc(F)c2F)NC1=O)c1cc2c(cn1)OCCN2C (single isomer, unassigned) [Compound B74] | 100000 | 100000 | 1240
O=C(CN1Cc2c(ccc(F)c2F)NC1=O)NC1COCc2cc(F)ccc21 (single isomer, unassigned) [Compound B76] | 346.5 | 5359 | 390
O=C(CN1Cc2c(ccc(F)c2F)NC1=O)NC1COc2ccc(F)cc2C1 (single isomer, unassigned) [Compound B87] | 2048 | 1110 | 190
CC1c2ccccc2NC(=O)N1CC(=O)N[C@@H](CO)c1ccc(F)cc1F (single isomer, unassigned) [Compound B200, N-[(1R)-1-(2,4-difluorophenyl)-2-hydroxyethyl]-2-[(4R*)-4-methyl-2-oxo-1,4-dihydroquinazolin-3-yl]acetamide] | 79130 | 2863 | 2450
COc1cnc([C@H](C)NC(=O)CN2Cc3cc(F)ccc3NC2=O)c(F)c1 [Compound B179] | 100000 | 100000 | 
